# From PubChem BioAssay (NCI)
# “And” between values parts separate entries of the source, which are not always exact repeats. Equal entries are not always repeated.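 Method: 48-hour compound exposure of cells in 96-well plates, five concentrations, linear interpolation of endpoints. GI50 marks 50% less growth. TGI is the concentration that stops growth completely.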
# Columns and labels:
# Assay in all cases: NCI tumour cell line growth inhibition, 48 h
# NCI-H522 lung = test system: NCI-H522 lung
# K-562 leukemia = test system: K-562 leukemia
# RPMI-8226 leukemia = test system: RPMI-8226 leukemia
# MCF7 breast = test system: MCF7 breast
# IGROV1 ovarian = test system: IGROV1 ovarian
# OVCAR-4 ovarian = test system: OVCAR-4 ovarian
# SK-OV-3 ovarian = test system: SK-OV-3 ovarian
# OVCAR-8 ovarian = test system: OVCAR-8 ovarian
# MDA-MB-231 breast = test system: MDA-MB-231 breast
# MOLT-4 leukemia = test system: MOLT-4 leukemia
# MDA-MB-435 = test system: MDA-MB-435
# EKVX NSCLC = test system: EKVX NSCLC
# NCI-H23 lung = test system: NCI-H23 lung
# T-47D breast = test system: T-47D breast
# UACC-257 melanoma = test system: UACC-257 melanoma
# OVCAR-5 ovarian = test system: OVCAR-5 ovarian
# SK-MEL-2 melanoma = test system: SK-MEL-2 melanoma
# LOX IMVI melanoma = test system: LOX IMVI melanoma
# UACC-62 melanoma = test system: UACC-62 melanoma
# SF-539 CNS = test system: SF-539 CNS
# OVCAR-3 ovarian = test system: OVCAR-3 ovarian
# SF-295 CNS = test system: SF-295 CNS
# SF-268 CNS = test system: SF-268 CNS
# DU-145 prostate = test system: DU-145 prostate
# TK-10 renal = test system: TK-10 renal
# HOP-92 NSCLC = test system: HOP-92 NSCLC
# KM12 colon = test system: KM12 colon
# MALME-3M melanoma = test system: MALME-3M melanoma
# SN12C renal = test system: SN12C renal
smiles,measurement,setting,value
CNC(=O)c1cc(Oc2ccc(NC(=O)Nc3cc(C(C)(C)C)nn3-c3ccc4ncccc4c3)c(F)c2)ccn1,GI50,NCI-H522 lung,1780 nM and 2200 nM
same,TGI,NCI-H522 lung,4910 nM and 5310 nM
same,GI50,K-562 leukemia,15.1 nM and 27.5 nM
same,TGI,K-562 leukemia,> 100000 nM
same,GI50,RPMI-8226 leukemia,2400 nM and 2500 nM
same,TGI,RPMI-8226 leukemia,6510 nM and 5910 nM
same,GI50,MCF7 breast,1150 nM and 1050 nM
same,TGI,MCF7 breast,9130 nM and > 53000 nM
same,GI50,IGROV1 ovarian,712 nM and 1260 nM
same,TGI,IGROV1 ovarian,6610 nM and 6800 nM
same,GI50,OVCAR-4 ovarian,2380 nM and 2490 nM
same,TGI,OVCAR-4 ovarian,7740 nM and 14500 nM
same,GI50,SK-OV-3 ovarian,1590 nM and 2340 nM
same,TGI,SK-OV-3 ovarian,6590 nM and 7800 nM
same,GI50,OVCAR-8 ovarian,2240 nM and 1990 nM
same,TGI,OVCAR-8 ovarian,7820 nM and 6840 nM
same,GI50,MDA-MB-231 breast,827 nM and 963 nM
same,TGI,MDA-MB-231 breast,7120 nM and 5780 nM
same,GI50,MOLT-4 leukemia,1580 nM and 2080 nM
same,TGI,MOLT-4 leukemia,8060 nM and 5850 nM
same,GI50,MDA-MB-435,587 nM and 387 nM
same,TGI,MDA-MB-435,3870 nM and 1750 nM
same,GI50,EKVX NSCLC,2720 nM
same,TGI,EKVX NSCLC,8610 nM
same,GI50,NCI-H23 lung,1650 nM and 1260 nM
same,TGI,NCI-H23 lung,5910 nM and 4780 nM
same,GI50,T-47D breast,907 nM and 1790 nM
same,TGI,T-47D breast,7170 nM and > 29300 nM
same,GI50,UACC-257 melanoma,477 nM and 440 nM
same,TGI,UACC-257 melanoma,5560 nM and 3720 nM
same,GI50,OVCAR-5 ovarian,2100 nM and 3340 nM
same,GI50,SK-MEL-2 melanoma,1810 nM and 2550 nM
same,TGI,SK-MEL-2 melanoma,4340 nM and 5450 nM
same,GI50,LOX IMVI melanoma,405 nM
same,TGI,LOX IMVI melanoma,2080 nM
same,GI50,UACC-62 melanoma,74.3 nM and 62.4 nM
same,TGI,UACC-62 melanoma,1620 nM and 1180 nM
same,GI50,SF-539 CNS,2000 nM and 1710 nM
same,TGI,SF-539 CNS,4620 nM and 3660 nM
same,GI50,OVCAR-3 ovarian,2360 nM and 2210 nM
same,TGI,OVCAR-3 ovarian,7960 nM and 6350 nM
same,GI50,SF-295 CNS,1690 nM and 1580 nM
same,TGI,SF-295 CNS,8260 nM and 5620 nM
same,GI50,SF-268 CNS,1410 nM and 1520 nM
same,TGI,SF-268 CNS,5160 nM and 4490 nM
same,GI50,DU-145 prostate,2100 nM and 1800 nM
same,TGI,DU-145 prostate,6230 nM and 5620 nM
same,GI50,TK-10 renal,1830 nM and 1700 nM
same,TGI,TK-10 renal,6790 nM and 6930 nM
same,GI50,HOP-92 NSCLC,460 nM and 446 nM
same,TGI,HOP-92 NSCLC,4850 nM and 4600 nM
same,GI50,KM12 colon,42.2 nM and 43.3 nM
same,TGI,KM12 colon,5190 nM and 5410 nM
same,GI50,MALME-3M melanoma,212 nM and 53.6 nM
same,TGI,MALME-3M melanoma,1310 nM and 500 nM
same,GI50,SN12C renal,646 nM and 484 nM
same,TGI,SN12C renal,5740 nM and 4680 nM
